Results as given in patent US10407381B2 (THE BOARD OF TRUSTEES OF THE UNIVERSITY OF ILLINOIS, priority 2015, dated 2019).
Where two headings read alike, the source gives them in different places.

Assays:
5-HT2C receptor = target: T1, 5-HT2C receptor (Homo sapiens, UniProt P28335); conditions: cited from earlier work; for selectivity for 5-HT2C relative to 5-HT2B: 5-HT2C versus 5-HT2B
T1 sequence (P28335 33-458): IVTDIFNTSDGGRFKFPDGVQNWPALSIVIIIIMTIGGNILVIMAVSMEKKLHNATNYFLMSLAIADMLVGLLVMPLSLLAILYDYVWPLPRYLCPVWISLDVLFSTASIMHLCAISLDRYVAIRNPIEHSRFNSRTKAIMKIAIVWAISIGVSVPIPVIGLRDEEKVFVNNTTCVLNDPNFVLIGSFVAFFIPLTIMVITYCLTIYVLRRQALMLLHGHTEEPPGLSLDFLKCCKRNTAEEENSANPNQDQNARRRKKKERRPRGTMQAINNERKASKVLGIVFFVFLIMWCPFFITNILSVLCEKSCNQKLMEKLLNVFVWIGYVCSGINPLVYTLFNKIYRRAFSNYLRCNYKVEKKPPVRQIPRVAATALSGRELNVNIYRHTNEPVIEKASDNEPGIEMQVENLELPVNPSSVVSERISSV

5-HT2A [1] = target: T2, 5-HT2A (Homo sapiens, UniProt P28223); conditions: background, cited from earlier work
Target sequence in this assay (P28223 whole entry, species assumed): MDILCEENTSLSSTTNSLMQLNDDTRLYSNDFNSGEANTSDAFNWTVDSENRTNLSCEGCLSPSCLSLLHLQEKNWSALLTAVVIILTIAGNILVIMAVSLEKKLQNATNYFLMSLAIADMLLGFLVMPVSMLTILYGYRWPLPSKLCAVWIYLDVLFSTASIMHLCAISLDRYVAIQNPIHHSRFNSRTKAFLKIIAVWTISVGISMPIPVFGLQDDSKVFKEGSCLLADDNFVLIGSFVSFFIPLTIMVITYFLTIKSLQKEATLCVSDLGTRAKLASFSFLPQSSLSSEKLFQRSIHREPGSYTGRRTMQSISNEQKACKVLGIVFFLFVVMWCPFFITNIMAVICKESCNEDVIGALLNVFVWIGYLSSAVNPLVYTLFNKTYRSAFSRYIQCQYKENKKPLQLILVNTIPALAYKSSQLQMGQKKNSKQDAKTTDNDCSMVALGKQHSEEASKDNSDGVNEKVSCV

[2] = 10-60 mg/kg; cited from earlier work
5-HT2B [3] = target: T3, 5-HT2B (Homo sapiens, UniProt P41595); conditions: background, reported values; cited from earlier work
Target sequence in this assay (P41595 whole entry, species assumed): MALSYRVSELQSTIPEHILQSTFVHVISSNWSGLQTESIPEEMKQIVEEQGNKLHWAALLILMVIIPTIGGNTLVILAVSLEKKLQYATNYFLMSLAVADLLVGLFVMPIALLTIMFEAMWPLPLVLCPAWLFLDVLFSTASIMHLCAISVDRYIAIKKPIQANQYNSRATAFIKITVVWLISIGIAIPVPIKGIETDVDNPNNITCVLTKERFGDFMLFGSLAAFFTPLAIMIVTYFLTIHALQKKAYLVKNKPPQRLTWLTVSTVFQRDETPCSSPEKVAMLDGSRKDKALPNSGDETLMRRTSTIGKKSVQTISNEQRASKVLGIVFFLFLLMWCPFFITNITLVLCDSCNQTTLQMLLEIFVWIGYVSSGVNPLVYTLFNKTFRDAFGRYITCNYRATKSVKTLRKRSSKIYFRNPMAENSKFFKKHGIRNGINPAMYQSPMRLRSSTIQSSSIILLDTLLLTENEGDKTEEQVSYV

human 5-HT2C-INI = target: T4, human 5-HT2C-INI (Homo sapiens, UniProt P28335); experiment: Calcium flux (FLIPR) assay, human 5-HT2C-INI stably expressed in HEK-293 (Flp-In-293) cells; conditions: for EC50: EC50, nM 5-HT2C, NA = no activity at 10 μM; for EC50 / Emax, % 5-HT 5-HT2C: human 5-HT2C-INI in HEK-293 cells, FLIPR; for Emax, % 5-HT 5-HT2C: normalized to 5-HT
T4 sequence (P28335 33-458): T1 sequence (P28335 33-458)

5-HT2A [4] = target: T2, 5-HT2A; experiment: Calcium flux (FLIPR) assay, human 5-HT2A stably expressed in HEK-293 (Flp-In-293) cells; conditions: for EC50: EC50, nM 5-HT2A, NA = no activity at 10 μM; for EC50 / Emax, % 5-HT 5-HT2A: human 5-HT2A in HEK-293 cells, FLIPR; for Emax, % 5-HT 5-HT2A: normalized to 5-HT
Target sequence in this assay (P28223 whole entry): as the sequence (P28223 whole entry, species assumed) above

C57BL/6J mice = experiment: Amphetamine-stimulated activity test (open field), schizophrenia-like animal model; conditions: for influence on spontaneous activity, compound alone: 20 mg/kg i.p., 20-Veh groups; for AMPH-stimulated hyperlocomotion relative to the Veh-AMPH group: 10 or 20 mg/kg i.p., 3 mg/kg amphetamine, distance travelled 16-120 min, p-values<0.035; for dose dependence of suppression of AMPH hyperactivity: 10 versus 20 mg/kg i.p.
5-HT2B [5] = target: T3, 5-HT2B; experiment: Calcium flux (FLIPR) assay, human 5-HT2B stably expressed in HEK-293 (Flp-In-293) cells; conditions: human 5-HT2B in HEK-293 cells; for EC50: EC50, nM 5-HT2B, NA = no activity at 10 μM; for Emax, % 5-HT 5-HT2B: normalized to 5-HT
Target sequence in this assay (P41595 whole entry): as the sequence (P41595 whole entry, species assumed) above

[6] = several animal models; cited from earlier work
[7] = clinical trials, compared to the placebo group; cited from earlier work

Row | Structure (SMILES) | EC50 (human 5-HT2C-INI) [nM] | Emax, % 5-HT 5-HT2C (human 5-HT2C-INI) | EC50 (5-HT2A [4]) [nM] | Emax, % 5-HT 5-HT2A (5-HT2A [4]) | influence on spontaneous activity, compound alone (C57BL/6J mice) | AMPH-stimulated hyperlocomotion relative to the Veh-AMPH group (C57BL/6J mice) | dose dependence of suppression of AMPH hyperactivity (C57BL/6J mice) | other results
1 | Cc1cccc(C2CC2CN)c1 (stereo not drawn) | – | – | – | – | – | – | – | selectivity over 5-HT(2A) (5-HT2C receptor; 5-HT2C versus 5-HT2A): 120 fold; selectivity for 5-HT2C relative to 5-HT2B (5-HT2C receptor): 14 fold; EC50 (5-HT2C receptor; background, reported values): 4.8 nM; EC50 (5-HT2A [1]; reported values): 585 nM; antidepressant-like effects [2]: moderate antidepressant-like effects; EC50 (5-HT2B [3]): 65 nM
2 | C=CCOc1ccc(F)cc1C1CC1CN (single isomer, unassigned; (+)) [(+)-Example 8, (+)-(2-(2-(Allyloxy)-5-fluorophenyl)cyclopropyl)methanamine] | 4.2 | (87%) % 5-HT | 374 | (56%) % 5-HT | little influence | significantly reduced | dose-dependently suppressed the hyperactivity | –
3 | NCC1CC1c1cc(F)ccc1OCCF (single isomer, unassigned; (+)) [(+)-Example 10, (+)-(2-(5-Fluoro-2-(2-fluoroethoxy)phenyl)cyclopropyl)methanamine] | 3.4 | (89%) % 5-HT | 359 | (76%) % 5-HT | little influence | significantly reduced | not differentiated by dose | –
4 | NCC1CC1c1cc(Cl)ccc1OCCF (single isomer, unassigned; (+)) [(+)-Example 19, (+)-(2-(5-Chloro-2-(2-fluoroethoxy)phenyl)cyclopropyl)methanamine] | 32 | (86%) % 5-HT | 1480 | (35%) % 5-HT | – | significantly reduced | not differentiated by dose | EC50 (5-HT2B [5]): 632 nM; Emax, % 5-HT 5-HT2B (5-HT2B [5]): (31%) % 5-HT
5 | C=C(F)COc1ccc(Cl)cc1C1CC1CN (single isomer, unassigned; (+)) [(+)-Example 25, (+)-(2-(5-Chloro-2-((2-fluoroallyl)oxy)phenyl)cyclopropyl)methanamine] | 133 | (81%) % 5-HT | – | – | little influence | significantly reduced | dose-dependently suppressed the hyperactivity | EC50 (5-HT2B [5]): 1690 nM; Emax, % 5-HT 5-HT2B (5-HT2B [5]): (27%) % 5-HT
6 | Clc1cccc(COc2cncc(N3CCNCC3)n2)c1 [CP-809,101] | – | – | – | – | – | – | – | selectivity for 5-HT2C relative to 5-HT2B (5-HT2C receptor): about 600 fold; Emax at 5-HT2C (5-HT2C receptor; background, reported values): 93%; Emax at 5-HT2B (5-HT2B [3]): 57%
7 | c1cc2c3c(c1)[C@H]1CCC[C@H]1N3CCNC2 [WAY-163909] | – | – | – | – | – | – | – | preclinical antipsychotic-like activity [6]: good preclinical antipsychotic-like activity; agonist activity at 5-HT2A (5-HT2A [1]; reported): no agonist activity; Emax at 5-HT2B (5-HT2B [3]): 40%
8 | C[C@H]1CNCCc2ccc(Cl)cc21 [lorcaserin, reference compound] | – | (99%) % 5-HT | – | – | – | – | – | Emax (human 5-HT2C-INI; read-out: 5-HT2C Emax Std. Error): 99%; Emax (5-HT2A [4]; read-out: 5-HT2A Emax Std. Error): 68%; incidence of cardiac valve disorders [7]: higher incidence of cardiac valve disorders
